Experimental data taken from patent publication EP1808169B1, “Polyhydroxylated aromatic compounds for the treatment of amyloidosis and alpha-synuclein fibril diseases” (priority 1999, dated 2001).

Tests used:
[1] = test system: Aβ 1-40 amyloid fibrils; test: Thioflavin T fluorometry: dose-dependent disassembly/disruption of pre-formed Aβ 1-40 fibrils; assay type: biochemical; settings: 25 µM pre-fibrillized Aβ 1-40, overnight (~18 hours) at 37°C
Text: A previously described method of measuring amyloid fibril formation utilizing Thioflavin T fluorometry (H Naiki et al., Lab. Invest. 65:104-110, 1991; H Levine III, Protein Sci. 2:404-410, 1993; H Levine III, Amyloid: Int. J. Exp. Clin. Invest. 2:1-6, 1995; H Naiki and K. Nakakuki, Lab. Invest. 74:374-383, 1996) was employed to identify potential therapeutic compounds capable of causing a disassembly/disruption of Alzheimer's Aβ 1-42 amyloid fibrils. Thioflavin T is known to bind to fibrillar amyloid proteins, and an increase in fluorescence correlates with an increase in amyloid fibril formation, whereas a decrease in fluorescence correlates with a decrease in amyloid fibrils due to disassembly and/or disruption. The Alzheimer's Aβ protein (1-42) when placed in solution, such as distilled water, tends to spontaneously form amyloid fibrils. Using this sensitive assay, any decreases or increases in fluorescence was previously shown to correlate with a decrease or increase in the amount of amyloid fibrils (see the documents cited above), allowing one to identify and quantitate the extent of potential inhibitors and/or enhancers of Alzheimer's Aβ 1-42 amyloid fibrils.
To assess the effects of each compound on potential disassembly/ disruption of preformed Aβ 1-42 fibrils, 50 µl of Aβ 1-42 with or without test compounds (described above) were added to 1.2 ml of 100µM Thioflavin T (Sigma) in 50mM NaH2PO4 (pH 6.0) for fluorometry readings. […] Fluorescence emission at 482 nm was measured on a Turner instrument-model 450 fluorometer at an excitation wavelength of 450 nm. For each determination, the fluorometer was calibrated by zeroing in the presence of the Thioflavin T reagent alone, and by setting the 50 ng/ml riboflavin (Sigma Chemical Co., St. Louis, MO) in the Thioflavin T reagent to 1800 fluorescence units. All fluorescence determinations were based on these references and any fluorescence given off by any of the compounds in the presence of the Thioflavin T reagent was always subtracted from all pertinent readings.
For all fibrillogenesis studies utilizing Thioflavin T fluorometry, as disclosed herein, comparisons of amyloid protein in the presence or absence of test compounds were based on paired Student's t tests with data shown as the mean of triplicate measurements ± standard deviation.
In this study, the potential dose-dependent effects of tannic acid and gallic acid on disassembly/ disruption of pre-formed Aβ 1-40 was assessed. In this experiment, 1 mg of Aβ 1-40 (Bachem Inc., Torrance, CA, USA; Lot # T-20824) was dissolved in 1.0 ml of double distilled water (1 mg/ml solution) and incubated for 4 days at 37°C to spontaneously induce fibril formation. 25 µM of pre-fibrillized Aβ 1-40 was then incubated overnight (~18 hours) at 37°C, in the absence or presence of increasing amounts (25µg/ml, 50µg/ml, 75µg/ml and 100µg/ml) of tannic acid or gallic acid (each in the presence of 150 mM Tris HCl, 10 mM NaCl, pH 7.0, with 0.02% sodium azide). The Aβ:compound weight ratios were therefore 4:1, 2:1, 4:3, and 1:1, respectively, 50 µl aliquots were then added to 1.2 ml of 100µM Thioflavin T (Sigma) in 50mM NaH2PO4 (pH 6.0) for fluorometry readings as described in Example 1 above.

[2] = test system: Aβ 1-40 amyloid fibrils; test: Modified Congo red-Aβ spectrophotometric assay: dose-dependent disaggregation of fibrillized Aβ 1-40 (overnight incubation); assay type: biochemical; settings: overnight (~18 hours) at 37°C
Method: In this study, a Congo red-Aβ spectrophotometric assay (Klunk et al., Anal. Biochem. 266:66-76, 1999) was modified to determine the effectiveness of polyhydroxylated aromatic compounds on the disaggregation of pre-formed Aβ 1-40 amyloid fibrils. For this assay, 1 mg of Aβ 1-40 (Bachem) was incubated for 4 days in distilled water at 37°C to spontaneously produce amyloid fibrils. 25pM of fibrillized Aβ 1-40 was then incubated in triplicate with various test compounds for 3 days at 37°C in Tris-buffered saline (TBS)(100 mM Tris; 50 mM NaCl; pH 7.0, with 0.02% sodium azide), at an Aβ:compound weight ratio of 2:1. Following incubation, 50µl of 360 µM Congo red (Sigma) in distilled water was then added to 250 µl of each incubation mixture, giving a final Aβ:Congo red molar ratio of 1:3. After 10 minutes, the absorbance at 405 nm (reference wavelength to account for the absorbance of Congo red alone at 540 nm) and 540 nm (sample absorbance where "sample" refers to Aβ alone, test compound alone, or Aβ plus test compound, all in the presence of Congo red) was determined using a Biorad Model 550 BLISA Plate Reader (Biorad, Hercules, CA, USA). The absorbance at wavelength 405 nm was automatically subtracted by the ELISA plate reader from the absorbance at wavelength 540 nm (difference is referred to as Δ absorbance)(see Klunk et al. cited above). Therefore, the Δ absorbance reading at 540 nm was proportional to the amount of aggregated Aβ left in solution (Klunk et al.).
For all experiments involving test compounds, the Δ absorbance reading at 540 nm of the test compound alone (in the absence of Aβ), was always subtracted from the corresponding Δ absorbance reading at 540 nm of the test compound in the presence of Aβ. Using this modification of the method of Klunk et al., the use of a greater final concentration of Congo red, i.e. 60µM instead of 14µM, in the presence of fibrillar Aβ gave an overall absorbance at 540 nm that was always below 1.0 Absorbance Unit (AU), and well within the linear absorbance range.
In this study, the potential dose-dependent effects of tannic acid and gallic acid on the disaggregation of fibrillized Aβ 1-40 was assessed. In this experiment, the modified Congo red-Aβ spectrophotometric assay (Klunk et al, Anal. Biochem. 266:66-76, 1999) was used as described above (i.e. Example 4). However, in this specific experiment increasing amounts of tannic acid or gallic acid (i.e. 25µg/ml, 50µg/ml, 75µg/ml and 100µg/ml) were tested following an overnight (~18 hours) incubation at 37°C in the presence of 25pM of Aβ 1.40 (Bachem).

[3] = Aβ:compound w/w ratio 1:1 (100µg/ml compound)
[4] = Aβ:compound w/w ratio 2:1 (50µg/ml compound)
[5] = Aβ:compound w/w ratio 4:1 (25µg/ml compound)
[6] = Aβ:compound w/w ratio 4:3 (75µg/ml compound)
[7] = w/w ratio 2:1 (50µg/ml compound)
[8] = w/w ratio 4:1 (25µg/ml compound)
[9] = w/w ratio 4:3 (75µg/ml compound)

Structure (SMILES) | Fluorescence inhibition, %, at the Aβ 1.40:compound w/wratios given [1, 3] [%] | Fluorescence inhibition, %, at the Aβ 1.40:compound w/wratios given [1, 4] [%] | Fluorescence inhibition, %, at the Aβ 1.40:compound w/wratios given [1, 5] [%] | Fluorescence inhibition, %, at the Aβ 1.40:compound w/wratios given [1, 6] [%] | Decrease in absorbance, %, at the Aβ 1-40:compound w/w ratios given [2, 7] [%] | Decrease in absorbance, %, at the Aβ 1-40:compound w/w ratios given [2, 8] [%] | Decrease in absorbance, %, at the Aβ 1-40:compound w/w ratios given [2, 9] [%] | Decrease in absorbance, %, at the Aβ 1-40:compound w/w ratios given ([2]; w/w ratio 1:1 (100µg/ml compound)) [%]
O=C(O)c1cc(O)c(O)c(O)c1 [Gallic acid, gallic acid] | 45 ± 4.1 | 22 ± 3.3 | 14 ± 8.2 | 34 ± 3.6 | 22 ± 4.0 | 17 ± 9.5 | 30 ± 6.0 | 
O=C(OC[C@H]1O[C@@H](OC(=O)c2cc(O)c(O)c(OC(=O)c3cc(O)c(O)c(O)c3)c2)[C@H](OC(=O)c2cc(O)c(O)c(OC(=O)c3cc(O)c(O)c(O)c3)c2)[C@@H](OC(=O)c2cc(O)c(O)c(OC(=O)c3cc(O)c(O)c(O)c3)c2)[C@@H]1OC(=O)c1cc(O)c(O)c(OC(=O)c2cc(O)c(O)c(O)c2)c1)c1cc(O)c(O)c(OC(=O)c2cc(O)c(O)c(O)c2)c1 [Tannic acid, tannic acid] | 53 ± 4.2 | 42 ± 2.8 | 31 ± 4.8 | 49 ± 3.7 | 48 ± 6.8 | 42 ± 5.2 | 59 ± 6.4 | 61 ± 11.1
